Patent US10351559B2, “Maleate salts of a B-RAF kinase inhibitor, crystalline forms, methods of preparation, and uses therefore” (BeiGene, Ltd., priority 2015, dated 2019)
Counter-ions that a name gives are not always drawn.

Tests used:
CYP2C19 = CYP2C19 (Homo sapiens, UniProt P33261); assay: CYP inhibition; assay type: in vitro ADME
[1] = tested on: EGFR phosphorylation in HCC827 cells; assay: cellular phospho-EGFR TR-FRET assay; assay type: cell-based; details: Homo sapiens; EGFR mutant HCC827 lung cancer cells, 1 h treatment
Description: (§1) A375, Sk-Mel-28, HT29, Colo205, A431, and HCC827 cell lines were purchased from American Type Culture Collection. All the cell lines used in the cellular assays were cultured in the designated medium supplemented with 10% fetal bovine serum (FBS, Thermo Scientific), 100 units/mL penicillin (Gibco), 0.1 mg/mL streptomycin (Gibco) and in a humidified 37° C. environment with 5% CO2. Cell lines were reinstated from frozen stocks laid down within three passages from the original cells purchased and passaged no more than 30 times.
(§2) Cellular phospho-ERK and phospho-EGFR were measured using a TR-FRET-based method. Cells were seeded at 3×10^4 per well of a 96-well plate and left to attach for 16 hours. Growth medium was then replaced with 100 μL of medium containing no serum. Cells were then treated with a 10-point titration of compound. After 1 h of compound treatment, 50 μL of lysis buffer (Cisbio) were added to each well. Plates were then incubated at room temperature with shaking for 30 min. A total of 16 μL of cell lysate from each well of a 96-well plate was transferred to a 384-well small volume white plate. […] FRET signals were measured using a PHERAstar FS reader (BMG Labtech). IC50 values for ERK or EGFR phosphorylation was determined using GraphPad Prism software.

[2] = tested on: EGFR phosphorylation in A431 cells; assay: cellular phospho-EGFR TR-FRET assay; assay type: cell-based; details: Homo sapiens, A-431; EGFR overexpressing A431 cells, 1 h treatment
Description: as §1, §2

[3] = tested on: ERK1/2 phosphorylation in A375 xenografts; assay: PD study, p-ERK1/2 in tumor tissue (AlphaScreen SureFire); assay type: in vivo; details: A375 xenografts in mice, oral administration
Description: Human cancer cells were inoculated subcutaneously in the right axilla region of BALB/C nude mice to generate tumor xenografts. On the day of implantation, the cell culture medium was replaced with fresh medium. Three hours later, the media was removed and the cells were collected and re-suspended in cold (4° C.) PBS prior to inoculation. The right axilla region of each mouse was cleaned with 70% ethanol prior to cell inoculation. Each animal was injected subcutaneously with desired cells in 200 μl of cell suspension in the right front flank via a 26-gauge needle. After implantation tumor volumes were measured twice weekly in two dimensions using a calliper. Tumor volume was calculated using the formula: V=0.5×(a×b^2) where a and b are the long and short diameters of the tumor, respectively.
For PD study, when the average tumor size reaches 140-900 mm^3, animals were assigned into desired number of groups with 4 mice per group using a stratified randomization procedure. The groups consisted of a control group (no drug treatment), and different dose levels of Crystalline Form A* of Compound 1 Sesqui-Maleate treatment groups (ranged from 1-20 mg/kg). All doses were based on free-base weight. Drugs were administered by oral gavage once (qd) or twice (bid) daily. […] Body weight was assessed immediately before dosing and the volume dosed was adjusted accordingly. […]

[4] = pharmacokinetic study (LC-MS/MS); assay type: in vivo, Sprague-Dawley rats; details: rats
From the text: The fully-validated LC-MS/MS method was well used for the pharmacokinetic (PK) studies of Crystalline Form A* of Compound 1 Sesqui-Maleate in Sprague-Dawley rats and beagle dogs following single- and multiple-dose administrations.

C-Raf (Y340D/Y341D) = target: T1, C-Raf (Y340D/Y341D) (Homo sapiens, UniProt P04049, Y340D/Y341D); assay: Raf kinase enzymatic assay (HTRF); assay type: biochemical
T1 construct: purchased Life Technologies PV3805
Description: (§3) Crystalline Form A* of Compound 1 Sesqui-Maleate was tested against recombinant B-Raf (V600E) (PV3849), C-Raf (Y340D/Y341D) (PV3805) and wild-type Braf (PV3848) from Life Technologies in kinase activity assays based on homogeneous time-resolved fluorescence (HTRF) methodology (Cisbio Bioassays). The assays were carried out in a reaction mixture containing RAF kinases, ATP at KM concentration, GST-tagged MEK1 (K97R) and Crystalline Form A* of Compound 1 Sesqui-Maleate or DMSO in buffer containing 25 mM Tris pH7.4, 10 mM MgCl2, 0.5 mM EGTA, 0.5 mM Na3VO4, 5 mM beta-glycerophosphate, 0.01% Triton X-100, 2.5 mM DTT and 0.1% BSA. The kinase was incubated with Crystalline Form A* of Compound 1 Sesqui-Maleate for 1 hr at room temperature (RT) and the reaction was initiated by the addition of ATP and GST-MEK1 (Full-length protein with K97R mutation, recombinant protein purified from bacterial expression system). After reaction at RT for 1 hr, stop/detection solution was added according to the manufacture's instruction (Cisbio Bioassays). The stop/detection solution contained Eu3+ cryptate-conjugated anti-phospho MEK1/2 (Ser217/221) rabbit polyclonal antibody and d2-conjugated anti-GST mouse monoclonal antibody in buffer containing 25 mM Tris pH7.4, 400 mM KF, 50 mM EDTA, 0.1% BSA and 0.01% Triton X-100. The TR-FRET signals (ratio of fluorescence emission at 665 nm over emission at 620 nm with excitation at 337 nm wavelength) were measured on a PHERAstar FS plate reader (BMG Labtech) after 1.5 hr incubation. Phosphorylation of MEK1 led to the binding of anti-phospho-MEK1/2 antibody to GST-MEK1 protein that place fluorescent donor (Eu3+ crypate) in close proximity to the accepter d2 on the anti-GST antibody, thus resulting in a high degree of fluorescence resonance energy transfer from the donor fluorophore (at 620 nm) to the acceptor fluorophore (at 665 nm). The IC50 for Crystalline Form A* of Compound 1 Sesqui-Maleate was derived from fitting the dose-response % inhibition data to the four-parameter logistic model by Graphpad Prism software.

wild-type Braf = wild-type Braf (Homo sapiens, UniProt P15056); assay: Raf kinase enzymatic assay (HTRF); assay type: biochemical
Description: as §3

Sequence of wild-type Braf (P15056 whole entry): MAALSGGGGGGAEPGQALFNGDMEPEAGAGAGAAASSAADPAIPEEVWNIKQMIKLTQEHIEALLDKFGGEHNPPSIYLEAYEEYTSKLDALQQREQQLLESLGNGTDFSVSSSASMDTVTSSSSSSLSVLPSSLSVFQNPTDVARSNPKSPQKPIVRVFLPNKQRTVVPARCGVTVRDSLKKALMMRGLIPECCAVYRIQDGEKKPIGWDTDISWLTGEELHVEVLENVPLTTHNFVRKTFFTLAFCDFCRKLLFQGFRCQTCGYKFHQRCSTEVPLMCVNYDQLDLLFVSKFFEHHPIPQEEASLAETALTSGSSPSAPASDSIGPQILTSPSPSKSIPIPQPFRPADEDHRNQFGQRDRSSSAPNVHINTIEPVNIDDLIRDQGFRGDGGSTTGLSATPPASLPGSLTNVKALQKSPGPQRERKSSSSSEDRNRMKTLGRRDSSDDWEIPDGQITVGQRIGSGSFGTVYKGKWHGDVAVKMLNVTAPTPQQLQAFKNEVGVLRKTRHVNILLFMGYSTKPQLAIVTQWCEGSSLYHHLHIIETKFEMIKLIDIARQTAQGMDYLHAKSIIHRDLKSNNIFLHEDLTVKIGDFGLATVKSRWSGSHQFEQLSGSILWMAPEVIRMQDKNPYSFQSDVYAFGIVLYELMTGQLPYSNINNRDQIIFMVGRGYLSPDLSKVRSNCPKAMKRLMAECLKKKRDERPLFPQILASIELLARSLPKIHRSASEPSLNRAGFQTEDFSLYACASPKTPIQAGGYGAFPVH
T1 sequence (P04049 whole entry Y340D/Y341D): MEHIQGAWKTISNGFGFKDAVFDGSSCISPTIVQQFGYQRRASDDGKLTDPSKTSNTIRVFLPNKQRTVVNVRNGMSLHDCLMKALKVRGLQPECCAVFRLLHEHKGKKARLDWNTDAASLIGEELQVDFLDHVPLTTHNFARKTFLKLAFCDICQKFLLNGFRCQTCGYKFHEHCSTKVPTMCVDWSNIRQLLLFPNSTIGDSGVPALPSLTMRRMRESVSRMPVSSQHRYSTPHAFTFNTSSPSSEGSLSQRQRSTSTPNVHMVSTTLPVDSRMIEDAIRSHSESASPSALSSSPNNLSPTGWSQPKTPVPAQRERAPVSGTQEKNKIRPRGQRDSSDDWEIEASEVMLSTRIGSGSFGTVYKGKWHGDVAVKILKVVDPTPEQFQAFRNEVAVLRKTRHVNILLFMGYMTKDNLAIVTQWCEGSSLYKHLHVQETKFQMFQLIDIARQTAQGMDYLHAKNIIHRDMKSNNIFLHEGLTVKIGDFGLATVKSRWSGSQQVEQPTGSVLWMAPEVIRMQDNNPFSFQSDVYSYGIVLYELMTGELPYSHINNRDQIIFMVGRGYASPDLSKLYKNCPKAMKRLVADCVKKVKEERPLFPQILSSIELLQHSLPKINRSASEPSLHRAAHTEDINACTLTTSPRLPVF
Sequence of CYP2C19 (P33261 whole entry): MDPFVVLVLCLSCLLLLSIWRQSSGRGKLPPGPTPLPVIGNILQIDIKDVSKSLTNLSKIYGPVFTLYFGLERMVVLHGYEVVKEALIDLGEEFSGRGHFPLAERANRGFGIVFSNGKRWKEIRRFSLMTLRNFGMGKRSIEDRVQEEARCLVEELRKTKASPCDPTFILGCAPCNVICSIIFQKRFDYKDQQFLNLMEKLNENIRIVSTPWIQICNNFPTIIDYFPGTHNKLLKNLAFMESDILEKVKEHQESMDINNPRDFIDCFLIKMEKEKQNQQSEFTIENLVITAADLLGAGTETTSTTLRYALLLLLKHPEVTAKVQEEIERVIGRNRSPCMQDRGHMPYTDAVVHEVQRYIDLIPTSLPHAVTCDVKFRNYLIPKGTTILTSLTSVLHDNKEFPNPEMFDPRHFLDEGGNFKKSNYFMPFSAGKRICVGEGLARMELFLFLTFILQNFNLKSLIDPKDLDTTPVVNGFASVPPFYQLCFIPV

## O=C1CCc2c(Oc3ccc4c(c3)[C@@H]3[C@H](O4)[C@H]3c3nc4ccc(C(F)(F)F)cc4[nH]3)ccnc2N1 [5-(((1R,1aS,6bR)-1-(6-(trifluoromethyl)-1H-benzo[d]imidazol-2-yl)-1a,6b-dihydro-1H-cyclopropa[b]benzofuran-5-yl)oxy)-3,4-dihydro-1,8-naphthyridin-2(1H)-one sesqui-maleate salt]
CYP2C19
  IC50: 1960 nM
[1]
  IC50: 161 nM
[2]
  IC50: 385 nM
[3]
  inhibition of ERK1/2 phosphorylation in tumor: time-dependent and dose-dependent inhibition
[4]; Sprague-Dawley, rat, in vivo, po
  bioavailability: 51 to 102%
[4]; Sprague-Dawley, rat, in vivo, after oral administration, read-out: elimination half-life
  half-life: 4.4 to 9.4 h
[4]
  accumulation after multiple dosing: ~2 fold
[4]; 0.5 to 15 mg/kg
  kinetics over dose range: linear
C-Raf (Y340D/Y341D); C-RAF
  enzyme inhibition: potent and reversible inhibitor
C-Raf (Y340D/Y341D); CRAF Y340, 341D, ATP at KM
  IC50: 3.5 nM
wild-type Braf; WT-BRAF, ATP at KM
  IC50: 69 nM
wild-type Braf; wild-type B-RAF
  enzyme inhibition: potent and reversible inhibitor
